The text below walks through data of EP0541662B1, “SYNTHETIC PEPTIDES THAT ANTAGONIZE NEUROKININ A, THEIR SALTS AND THEIR MANUFACTURING PROCESSES” (A. MENARINI INDUSTRIE FARMACEUTICHE RIUNITE S.R.L., priority 1990, dated 1992).

Each structure is given as a SMILES string. Square brackets hold non-standard residues; d marks the D form. Peptide text beside a SMILES is read from it. Nle = CCCC[C@H](N)C(=O)O; Orn = NCCC[C@H](N)C(=O)O

The target of the assay is T1, NK-2 receptor (Oryctolagus cuniculus, UniProt P79218).
T1 construct: This preparation is isolated rabbit pulmonary artery, in which tachykinins produce dose-related contraction; from tissue; host or cells: isolated rabbit pulmonary artery
T1 sequence (P79218 1-384): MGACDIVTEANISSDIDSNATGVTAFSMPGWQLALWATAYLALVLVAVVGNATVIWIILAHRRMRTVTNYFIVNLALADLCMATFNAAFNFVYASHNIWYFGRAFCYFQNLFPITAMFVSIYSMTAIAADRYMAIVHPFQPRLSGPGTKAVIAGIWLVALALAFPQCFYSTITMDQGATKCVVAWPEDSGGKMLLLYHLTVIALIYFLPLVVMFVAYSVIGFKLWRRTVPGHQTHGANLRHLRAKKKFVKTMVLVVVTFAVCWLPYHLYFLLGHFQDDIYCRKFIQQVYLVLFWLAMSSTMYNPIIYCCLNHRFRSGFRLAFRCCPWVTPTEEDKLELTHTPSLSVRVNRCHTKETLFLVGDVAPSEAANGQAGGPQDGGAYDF
Put plainly: Antagonism of NKA-induced contraction in isolated rabbit pulmonary artery. The note with it: inhibition of the response to NKA (3 nM), 10⁻⁶M concentration of each compound. The assay is classed as cell-based. The procedure:
The ability of the peptides described in the present invention to interact with the neurokinin A receptor as agonists or antagonists was evaluated in an in-vitro study using a preparation in which the biological response produced by tachykinins and related peptides is determined exclusively from the neurokinin A receptor (NK-2 receptor). This preparation is isolated rabbit pulmonary artery, in which tachykinins produce dose-related contraction (Rovero et al., Neuropeptides, 1989, 13: 263-270). The activity of the peptides in this preparation was determined using a concentration of NKA (3 nM) that produces a response equivalent to 45% of the maximum. The peptides that are the subject of the present application were added to the preparation in increasing concentrations and their activity evaluated in terms of inhibition of the response to NKA.
Antagonist biological activity on the NK-2 receptor in isolated rabbit pulmonary artery of the peptides described.
As a reminder, the inhibition is the relative decrease from the control value, in per cent. A higher inhibition goes with strong suppression. In the case of `CC(C)[C@@H]1NC(=O)[C@@H](Cc2c[nH]c3ccccc23)NC(=O)[C@H](Cc2ccc(O)cc2)NC(=O)[C@H](CC(=O)O)NC(=O)[C@H](CCCNC(=N)N)NC(=O)[C@@H](Cc2c[nH]c3ccccc23)NC(=O)[C@@H](Cc2c[nH]c3ccccc23)NC1=O` [Cyclo[AspTyrDTrpValDTrpDTrpArg], cyclo[AspTyrDTrpValDTrpDTrpArg]] (cyclo(DY[dW]V[dW][dW]R)), the inhibition is 95%. Regarding `CC(C)[C@@H]1NC(=O)[C@@H](Cc2c[nH]c3ccccc23)NC(=O)[C@H](Cc2ccc(O)cc2)NC(=O)[C@H](CC(=O)O)NC(=O)[C@H](CCCCN)NC(=O)[C@@H](Cc2c[nH]c3ccccc23)NC(=O)[C@@H](Cc2c[nH]c3ccccc23)NC1=O` [Cyclo[AspTyrDTrpValDTrpDTrpLys], cyclo[AspTyrDTrpValDTrpDTrpLys]] (cyclo(DY[dW]V[dW][dW]K)), the inhibition is 95%. Next, `CC(C)[C@H](NC(=O)[C@@H](Cc1c[nH]c2ccccc12)NC(=O)[C@H](Cc1ccc(O)cc1)NC(=O)[C@@H](N)CC(=O)O)C(=O)N[C@H](Cc1c[nH]c2ccccc12)C(=O)N[C@H](Cc1c[nH]c2ccccc12)C(=O)N[C@@H](C)C(N)=O` [H-Asp-Tyr-DTrp-Val-DTrp-DTrp-Ala-NH₂] (H-DY[dW]V[dW][dW]A-NH2): 100%; `CC(C)[C@H](NC(=O)[C@@H](Cc1c[nH]c2ccccc12)NC(=O)[C@H](Cc1ccc(O)cc1)NC(=O)[C@@H](N)CC(=O)O)C(=O)N[C@H](Cc1c[nH]c2ccccc12)C(=O)N[C@H](Cc1c[nH]c2ccccc12)C(=O)N[C@@H](CCC(=O)O)C(N)=O` [H-Asp-Tyr-DTrp-Val-DTrp-DTrp-Glu-NH₂] (H-DY[dW]V[dW][dW]E-NH2): 100%. For `CC(C)[C@H](NC(=O)[C@@H](Cc1c[nH]c2ccccc12)NC(=O)[C@H](Cc1ccc(O)cc1)NC(=O)[C@@H](N)CC(=O)O)C(=O)N[C@H](Cc1c[nH]c2ccccc12)C(=O)N[C@H](Cc1c[nH]c2ccccc12)C(=O)NCC(N)=O` [H-Asp-Tyr-DTrp-Val-DTrp-DTrp-Gly-NH₂] (H-DY[dW]V[dW][dW]G-NH2) the value was 100%. Next, `CC(C)C[C@H](NC(=O)[C@@H](Cc1c[nH]c2ccccc12)NC(=O)[C@@H](Cc1c[nH]c2ccccc12)NC(=O)[C@@H](NC(=O)[C@@H](Cc1c[nH]c2ccccc12)NC(=O)[C@H](Cc1ccc(O)cc1)NC(=O)[C@@H](N)CC(=O)O)C(C)C)C(N)=O` [H-Asp-Tyr-DTrp-Val-DTrp-DTrp-Leu-NH₂] (H-DY[dW]V[dW][dW]L-NH2): 100%; `CC(C)[C@H](NC(=O)[C@@H](Cc1c[nH]c2ccccc12)NC(=O)[C@H](Cc1ccc(O)cc1)NC(=O)[C@@H](N)CC(=O)O)C(=O)N[C@H](Cc1c[nH]c2ccccc12)C(=O)N[C@H](Cc1c[nH]c2ccccc12)C(=O)N[C@@H](CCCCN)C(N)=O` [H-Asp-Tyr-DTrp-Val-DTrp-DTrp-Lys-NH₂] (H-DY[dW]V[dW][dW]K-NH2): 100%; `CCCC[C@H](NC(=O)[C@@H](Cc1c[nH]c2ccccc12)NC(=O)[C@@H](Cc1c[nH]c2ccccc12)NC(=O)[C@@H](NC(=O)[C@@H](Cc1c[nH]c2ccccc12)NC(=O)[C@H](Cc1ccc(O)cc1)NC(=O)[C@@H](N)CC(=O)O)C(C)C)C(N)=O` [H-Asp-Tyr-DTrp-Val-DTrp-DTrp-Nle-NH₂] (H-DY[dW]V[dW][dW][Nle]-NH2): 100%.

Molecule `CC(C)[C@H](NC(=O)[C@@H](Cc1c[nH]c2ccccc12)NC(=O)[C@H](Cc1ccc(O)cc1)NC(=O)[C@@H](N)CC(=O)O)C(=O)N[C@H](Cc1c[nH]c2ccccc12)C(=O)N[C@H](Cc1c[nH]c2ccccc12)C(=O)N[C@@H](CCCN)C(N)=O` [H-Asp-Tyr-DTrp-Val-DTrp-DTrp-Orn-NH₂] (H-DY[dW]V[dW][dW][Orn]-NH2) showed an inhibition of 100%.
